Reference: patent US20120142720A1, “Phenylethanoic Acid, Phenylpropanoic Acid and Phenylpropenoic Acid Conjugates and Prodrugs of Hydrocodone, Methods of Making and Use Thereof” (KEMPHARM, INC., priority 2009, published 2012)

Assays:
[1] = Water solubility / feasibility of intravenous or intranasal dosing; settings: with regard to intravenous or intranasal dosing at oral equivalent doses
[2] = Intranasal PK profile in rats, plasma hydrocodone and hydromorphone by LC-MS/MS
[3] = Chemical stability: hydrolysis in 5% NaHCO3; assay type: physicochemical; settings: 5% NaHCO3, one hour
[4] = Chemical stability: hydrolysis to hydrocodone in 1N HCl; settings: 1 hour
[5] = Oral PK profile in rats, plasma hydrocodone and hydromorphone by LC-MS/MS
[6] = equivalent to 2 mg/kg freebase hydrocodone, FIG. 7
[7] = equivalent to 2 mg/kg freebase hydrocodone, FIG. 8

For `COc1ccc2c3c1OC1C(OC(=O)CCCCC(=O)O)=CC[C@H]4[C@@H](C2)N(C)CC[C@]314` (stereo partly drawn) [Adipate-HC], the water solubility [1] was “water-soluble”, the “hydrocodone AUC, higher than Ibu-HC” value [2, 6] was “approximately 170%” and the “hydrocodone Cmax, higher than Ibu-HC” value [2, 6] was about 245%. For the same molecule, the “hydromorphone AUC, higher than Ibu-HC” value [2, 7] was “approximately 940%”, the “hydromorphone Cmax, higher than Ibu-HC” value [2, 7] was ~1,010% and the “initial amount of conjugate hydrolyzed” value ([3]; ambient (~20° C.)) was 3%. The “initial amount of conjugate hydrolyzed” value ([3]; oil bath 100° C.) was 100%, the “initial amount of conjugate hydrolyzed” value ([4]; ambient (~20° C.)) was 13% and the “initial amount of conjugate hydrolyzed” value ([4]; oil bath 100° C.) was 100%.
For `COc1ccc2c3c1OC1C(OC(=O)/C=C/c4ccccc4)=CCC4C(C2)N(C)CCC314` (stereo not drawn) [Cinnamate-HC, cinnamate-hydrocodone], the “hydrocodone plasma concentrations during subsequent elimination compared with Hydrocodone.BT” value ([5]; equivalent to 2 mg/kg freebase hydrocodone, FIG. 9) was “similar”.
With `COc1ccc2c3c1OC1C(OC(=O)COCC(=O)O)=CC[C@H]4[C@@H](C2)N(C)CC[C@]314` (stereo partly drawn) [Diglycolate-HC] the water solubility [1] was “water-soluble”.
For `COc1ccc2c3c1O[C@H]1C(=O)CC[C@H]4[C@@H](C2)N(C)CC[C@]314.O=C(O)C(O)C(O)C(=O)O` [Hydrocodone.BT, hydrocodone bitartrate], the “hydrocodone AUC, higher than Ibu-HC” value ([2]; Example 6, FIG. 11) was “approximately 300%” and the “hydrocodone Cmax, higher than Ibu-HC” value ([2]; Example 6, FIG. 11) was about 525%.
In the case of `COc1ccc2c3c1OC1C(OC(=O)C(C)c4ccc(CC(C)C)cc4)=CCC4C(C2)N(C)CCC314` (stereo not drawn) [Ibu-HC, ibuprofen-hydrocodone], the water solubility [1] is reported as “very low water solubility”, the “hydromorphone AUC compared with Diglycolate-HC” value ([5]; equivalent of 2 mg/kg hydrocodone freebase, FIG. 6) is reported as “similar” and the “hydrocodone and hydromorphone plasma concentrations compared with unconjugated Hydrocodone.BT” value ([5]; equivalent to 2 mg/kg freebase hydrocodone, FIG. 9 and FIG. 10) is reported as “similar”. For the same molecule, the “AUC and Cmax values (hydrocodone and hydromorphone) compared with Hydrocodone.BT” value ([5]; same dose based on hydrocodone freebase) was “within the range of bioequivalence”, the “hydrocodone plasma concentrations compared with Hydrocodone.BT” value ([2]; Example 6, FIG. 11) was “significantly lower” and the “hydromorphone plasma concentration compared with Hydrocodone.BT” value ([2]; Example 6, FIG. 12) was “very low plasma concentration”. The “hydrocodone plasma concentrations compared with Adipate-HC” value [2, 6] was “significantly lower”, the “hydromorphone plasma concentration compared with Adipate-HC” value [2, 7] was “very low plasma concentration” and the “initial amount of conjugate hydrolyzed” value ([3]; ambient (~20° C.)) was 0%. For the same molecule, the “initial amount of conjugate hydrolyzed” value ([3]; oil bath 100° C.) was 22%.
In the case of `COc1ccc2cc(C(C)C(=O)OC3=CCC4C5Cc6ccc(OC)c7c6C4(CCN5C)C3O7)ccc2c1` (stereo not drawn) [Naproxen-HC, naproxen-hydrocodone], the “initial amount of conjugate hydrolyzed” value ([3]; ambient (~20° C.)) is reported as 0%, the “initial amount of conjugate hydrolyzed” value ([3]; oil bath 100° C.) is reported as 8% and the “initial amount of conjugate hydrolyzed” value ([4]; ambient (~20° C.)) is reported as 0%. The “initial amount of conjugate hydrolyzed” value ([4]; oil bath 100° C.) was 33%.
